Legend:
[1] = Tolerability and weight assessment of TgFD9 mice; type: in vivo; details: oral gavage once daily for 7 days, 10, 30, 60 or 100 mg/kg
Experimental: FIGS. 7C-E show the relative expression of full-length (FL) and Δ20 ELP1 mRNA (left graphs), and ELP1 protein quantification (right graphs) in kidney (FIG. 7C), heart (FIG. 7D) and skin (FIG. 7E) after oral doses of Compound (I) ranging from 10 to 100 mg/kg in adult transgenic TgFD9 mouse (n=4-6 mice in each treatment group). Comparisons were done within the same group, against the vehicle-treated mice. […] The levels of compound were measured using mass spectrometry. In the figure, *p<0.05; **p<0.01; ***p<0.001.
Compound (I) was evaluated in vivo to determine whether splicing correction can lead to a concomitant increase in ELP1 protein. In brief, TgFD9 transgenic mice, which carry the human ELP1 gene with a Exon 20 splice mutation, were treated by oral gavage once daily for 7 days with Compound (I) as a suspension in 0.5% HPMC, 0.1% Tween 80 at a dose of 10, 30, 60 or 100 mg/kg. The mice used for this study were housed in an animal facility, provided with access to food and water ad libitum, and maintained on a 12-hour light/dark cycle. For routine genotyping, genomic DNA was prepared from tail biopsies and PCR was carried out to detect the TgFD9 transgene using the following primers—forward 5′-[…]-3′; reverse, 5′-[…]-3′. Mice were sacrificed 1 hour after the last dose.
The level of splicing correction correlated with Compound (I) tissue distribution (FIGS. 7F-7G).

ELP1 minigene = assay: Minigene splicing in transfected HEK293T cells, RT-PCR exon inclusion; type: cell-based, human
Experimental: HEK293T cells were seeded in 6-well culture plates at 1.20×10^6 cells/well in D-MEM, 10% FBS, without antibiotics and incubated overnight to reach approximately 90% confluence. Transfection was performed with FuGENE® HD Transfection Reagent (E2311, Promega) using the FuGENE-DNA ratio at 3.5:1 and following manufacturer protocol. After 4 hours of incubation at 37° C., cells were plated at a density of 3×10^4 cells/well in a poly-L-lysine coated 96-well plate for the dual luciferase minigene assay or at the density of 8.5×10^5 cells/well into 6-well plates for minigene transfection. […]
After treatment, the cells were collected and RNA was extracted with QIAzol Lysis Reagent (79306, Qiagen) following the manufacturer's instructions. The yields of the total RNA for each sample were determined using a Nanodrop ND-1000 spectrophotometer. […]
Ratios between isoforms having the middle exon included or excluded were obtained using the integrated density value (IDV) for each correspondent band, and then assessed using Alpha 2000™ Image Analyzer and quantified by ImageJ software. The level of exon inclusion was calculated as previously described^4, where the relative density value of the band represents inclusion and is expressed as a percentage. Validation of the semi-quantitative RT-PCR method for the measurement of exon inclusion was performed using RT-qPCR^4. […]

Clc1nc(NCc2ccncc2)c2cc[nH]c2n1 [Compound (I), 2-chloro-N-(pyridin-4-ylmethyl)-7H-pyrrolo[2,3-d]pyrimidin-4-amine]
tolerability, weight loss, adverse effects [1]: well tolerated with no weight loss or adverse effects observed | ELP1 splicing in a minigene system (ELP1 minigene): corrected splicing of ELP1
